# How the values were obtained:
# Homo sapiens [1] = species: Homo sapiens; assay: Inhibition of transglutaminase in human keratinocytes assessed as mean transglutaminase activity level at 5.93 10^-6M in presence of 10 uM retinal relative to retinal alone; assay type: cell-based; parameters: scale not given: the % may be the effect or the level left
# Homo sapiens [2] = species: Homo sapiens; assay: Inhibition of transglutaminase in human keratinocytes assessed as mean transglutaminase activity level at 1.6 10^-4M in presence of 10 uM retinal relative to retinal alone; assay type: cell-based; parameters: scale not given: the % may be the effect or the level left
# Homo sapiens [3] = species: Homo sapiens; assay: Inhibition of transglutaminase in human keratinocytes assessed as mean transglutaminase activity level at 1.79 10^-9M in presence of 10 uM retinal relative to retinal alone; assay type: cell-based; parameters: scale not given: the % may be the effect or the level left
# Homo sapiens [4] = species: Homo sapiens; assay: Inhibition of transglutaminase in human keratinocytes assessed as mean transglutaminase activity level at 8.78 10^-9M in presence of 10 uM retinal relative to retinal alone; assay type: cell-based; parameters: scale not given: the % may be the effect or the level left
# Homo sapiens [5] = species: Homo sapiens; assay: Inhibition of transglutaminase in human keratinocytes assessed as mean transglutaminase activity level at 1.98 10^-6M in presence of 10 uM retinal relative to retinal alone; assay type: cell-based; parameters: scale not given: the % may be the effect or the level left
# Homo sapiens [6] = species: Homo sapiens; assay: Inhibition of transglutaminase in human keratinocytes assessed as mean transglutaminase activity level at 2.19 10^-9M in presence of 10 uM retinal relative to retinal alone; assay type: cell-based; parameters: scale not given: the % may be the effect or the level left
# Homo sapiens [7] = species: Homo sapiens; assay: Inhibition of transglutaminase in human keratinocytes assessed as mean transglutaminase activity level at 6.58 10^-7M in presence of 10 uM retinal relative to retinal alone; assay type: cell-based; parameters: scale not given: the % may be the effect or the level left
# Homo sapiens [8] = species: Homo sapiens; assay: Inhibition of transglutaminase in human keratinocytes assessed as mean transglutaminase activity level at 4.39 10^-8M in presence of 10 uM retinal relative to retinal alone; assay type: cell-based; parameters: scale not given: the % may be the effect or the level left
# Homo sapiens [9] = species: Homo sapiens; assay: Inhibition of transglutaminase in human keratinocytes assessed as mean transglutaminase activity level at 1.78 10^-5M in presence of 10 uM retinal relative to retinal alone; assay type: cell-based; parameters: scale not given: the % may be the effect or the level left
# Homo sapiens [10] = species: Homo sapiens; assay: Inhibition of transglutaminase in human keratinocytes assessed as mean transglutaminase activity level at 5.33 10^-5M in presence of 10 uM retinal relative to retinal alone; assay type: cell-based; parameters: scale not given: the % may be the effect or the level left
# Homo sapiens [11] = species: Homo sapiens; assay: Inhibition of transglutaminase in human keratinocytes assessed as mean transglutaminase activity level at 1.4 10^-2M in presence of 10 uM retinal relative to retinal alone; assay type: cell-based; parameters: scale not given: the % may be the effect or the level left
# Homo sapiens [12] = species: Homo sapiens; assay: Inhibition of transglutaminase in human keratinocytes assessed as mean transglutaminase activity level at 1.65 10^-7M in presence of 10 uM retinal relative to retinal alone; assay type: cell-based; parameters: scale not given: the % may be the effect or the level left
# Homo sapiens [13] = species: Homo sapiens; assay: Inhibition of transglutaminase in human keratinocytes assessed as mean transglutaminase activity level at 4.8 10^-3M in presence of 10 uM retinal relative to retinal alone; assay type: cell-based; parameters: scale not given: the % may be the effect or the level left
# Homo sapiens [14] = species: Homo sapiens; assay: Inhibition of transglutaminase in human keratinocytes assessed as mean transglutaminase activity level at 1.23 10^-5M in presence of 10 uM retinal relative to retinal alone; assay type: cell-based; parameters: scale not given: the % may be the effect or the level left
# Homo sapiens [15] = species: Homo sapiens; assay: Inhibition of transglutaminase in human keratinocytes assessed as mean transglutaminase activity level at 1 10^-3M in presence of 10 uM retinal relative to retinal alone; assay type: cell-based; parameters: scale not given: the % may be the effect or the level left
# Homo sapiens [16] = species: Homo sapiens; assay: Inhibition of transglutaminase in human keratinocytes assessed as mean transglutaminase activity level at 8.2 10^-6M in presence of 10 uM retinal relative to retinal alone; assay type: cell-based; parameters: scale not given: the % may be the effect or the level left
# Homo sapiens [17] = species: Homo sapiens; assay: Inhibition of transglutaminase in human keratinocytes assessed as mean transglutaminase activity level at 3.29 10^-7M in presence of 10 uM retinal relative to retinal alone; assay type: cell-based; parameters: scale not given: the % may be the effect or the level left
# Homo sapiens [18] = species: Homo sapiens; assay: Inhibition of transglutaminase in human keratinocytes assessed as mean transglutaminase activity level at 3.73 10^-4M in presence of 10 uM retinal relative to retinal alone; assay type: cell-based; parameters: scale not given: the % may be the effect or the level left
# Homo sapiens [19] = species: Homo sapiens; assay: Inhibition of transglutaminase in human keratinocytes assessed as mean transglutaminase activity level at 4.1 10^-5M in presence of 10 uM retinal relative to retinal alone; assay type: cell-based; parameters: scale not given: the % may be the effect or the level left
# Homo sapiens [20] = species: Homo sapiens
# Description: Inhibition of transglutaminase in human keratinocytes in presence of 10 uM retinal relative to retinal alone
# [21] = molecular target: T1, Cellular retinoic acid-binding protein 2 (Homo sapiens) (UniProt P29373); assay: Inhibition of radioactive all-trans retinoic acid binding to CRABP2 (unknown origin) expressed in Escherichia coli BLR(DE3)pLys incubated for 1 hr by scintillation counting assay; conditions: concentration not given here
# T1 sequence (whole entry): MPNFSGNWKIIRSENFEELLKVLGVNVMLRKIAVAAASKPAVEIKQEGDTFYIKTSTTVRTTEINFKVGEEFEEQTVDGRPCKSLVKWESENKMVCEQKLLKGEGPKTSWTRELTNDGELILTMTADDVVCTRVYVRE
# Homo sapiens [22] = species: Homo sapiens; assay: Inhibition of transglutaminase in human keratinocytes assessed as mean transglutaminase activity level at 5.0 10^-8M in presence of 10 uM retinal relative to retinal alone; assay type: cell-based; parameters: scale not given: the % may be the effect or the level left
# Homo sapiens [23] = species: Homo sapiens; assay: Inhibition of transglutaminase in human keratinocytes assessed as mean transglutaminase activity level at 2 10^-8M in presence of 10 uM retinal relative to retinal alone; assay type: cell-based; parameters: scale not given: the % may be the effect or the level left
# Homo sapiens [24] = species: Homo sapiens; assay: Inhibition of transglutaminase in human keratinocytes assessed as mean transglutaminase activity level at 4.3 10^-9M in presence of 10 uM retinal relative to retinal alone; assay type: cell-based; parameters: scale not given: the % may be the effect or the level left
# Homo sapiens [25] = species: Homo sapiens; assay: Inhibition of transglutaminase in human keratinocytes assessed as mean transglutaminase activity level at 1.1 10^-8M in presence of 10 uM retinal relative to retinal alone; assay type: cell-based; parameters: scale not given: the % may be the effect or the level left
# Homo sapiens [26] = species: Homo sapiens; assay: Inhibition of transglutaminase in human keratinocytes assessed as mean transglutaminase activity level at 4.22 10^-5M in presence of 10 uM retinal relative to retinal alone; assay type: cell-based; parameters: scale not given: the % may be the effect or the level left
# Homo sapiens [27] = species: Homo sapiens; assay: Inhibition of transglutaminase in human keratinocytes assessed as mean transglutaminase activity level at 1.0 10^-9M in presence of 10 uM retinal relative to retinal alone; assay type: cell-based; parameters: scale not given: the % may be the effect or the level left
# Homo sapiens [28] = species: Homo sapiens; assay: Inhibition of transglutaminase in human keratinocytes assessed as mean transglutaminase activity level at 6.9 10^-9M in presence of 10 uM retinal relative to retinal alone; assay type: cell-based; parameters: scale not given: the % may be the effect or the level left
# Homo sapiens [29] = species: Homo sapiens; assay: Inhibition of transglutaminase in human keratinocytes assessed as mean transglutaminase activity level at 1.41 10^-6M in presence of 10 uM retinal relative to retinal alone; assay type: cell-based; parameters: scale not given: the % may be the effect or the level left
# Homo sapiens [30] = species: Homo sapiens; assay: Inhibition of transglutaminase in human keratinocytes assessed as mean transglutaminase activity level at 6.26 10^-8M in presence of 10 uM retinal relative to retinal alone; assay type: cell-based; parameters: scale not given: the % may be the effect or the level left
# Homo sapiens [31] = species: Homo sapiens; assay: Inhibition of transglutaminase in human keratinocytes assessed as mean transglutaminase activity level at 1.25 10^-8M in presence of 10 uM retinal relative to retinal alone; assay type: cell-based; parameters: scale not given: the % may be the effect or the level left
# Homo sapiens [32] = species: Homo sapiens; assay: Inhibition of transglutaminase in human keratinocytes assessed as mean transglutaminase activity level at 4.69 10^-7M in presence of 10 uM retinal relative to retinal alone; assay type: cell-based; parameters: scale not given: the % may be the effect or the level left
# Homo sapiens [33] = species: Homo sapiens; assay: Inhibition of transglutaminase in human keratinocytes assessed as mean transglutaminase activity level at 3.8 10^-4M in presence of 10 uM retinal relative to retinal alone; assay type: cell-based; parameters: scale not given: the % may be the effect or the level left
# Homo sapiens [34] = species: Homo sapiens; assay: Inhibition of transglutaminase in human keratinocytes assessed as mean transglutaminase activity level at 3.3123 10^-4M in presence of 10 uM retinal relative to retinal alone; assay type: cell-based; parameters: scale not given: the % may be the effect or the level left
# Homo sapiens [35] = species: Homo sapiens; assay: Inhibition of transglutaminase in human keratinocytes assessed as mean transglutaminase activity level at 1.14 10^-3M in presence of 10 uM retinal relative to retinal alone; assay type: cell-based; parameters: scale not given: the % may be the effect or the level left
# Homo sapiens [36] = species: Homo sapiens; assay: Inhibition of transglutaminase in human keratinocytes assessed as mean transglutaminase activity level at 2 10^-7M in presence of 10 uM retinal relative to retinal alone; assay type: cell-based; parameters: scale not given: the % may be the effect or the level left
# Homo sapiens [37] = species: Homo sapiens; assay: Inhibition of transglutaminase in human keratinocytes assessed as mean transglutaminase activity level at 1.23 10^-4M in presence of 10 uM retinal relative to retinal alone; assay type: cell-based; parameters: scale not given: the % may be the effect or the level left
# Homo sapiens [38] = species: Homo sapiens; assay: Inhibition of transglutaminase in human keratinocytes assessed as mean transglutaminase activity level at 5.1 10^-8M in presence of 10 uM retinal relative to retinal alone; assay type: cell-based; parameters: scale not given: the % may be the effect or the level left
# Homo sapiens [39] = species: Homo sapiens; assay: Inhibition of transglutaminase in human keratinocytes assessed as mean transglutaminase activity level at 9.1 10^-4M in presence of 10 uM retinal relative to retinal alone; assay type: cell-based; parameters: scale not given: the % may be the effect or the level left
# Homo sapiens [40] = species: Homo sapiens; assay: Inhibition of transglutaminase in human keratinocytes assessed as mean transglutaminase activity level at 1.2 10^-5M in presence of 10 uM retinal relative to retinal alone; assay type: cell-based; parameters: scale not given: the % may be the effect or the level left
# Homo sapiens [41] = species: Homo sapiens; assay: Inhibition of transglutaminase in human keratinocytes assessed as mean transglutaminase activity level at 1.29 10^-6M in presence of 10 uM retinal relative to retinal alone; assay type: cell-based; parameters: scale not given: the % may be the effect or the level left
# Homo sapiens [42] = species: Homo sapiens; assay: Inhibition of transglutaminase in human keratinocytes assessed as mean transglutaminase activity level at 1 10^-8M in presence of 10 uM retinal relative to retinal alone; assay type: cell-based; parameters: scale not given: the % may be the effect or the level left
# Homo sapiens [43] = species: Homo sapiens; assay: Inhibition of transglutaminase in human keratinocytes assessed as mean transglutaminase activity level at 3.65 10^-6M in presence of 10 uM retinal relative to retinal alone; assay type: cell-based; parameters: scale not given: the % may be the effect or the level left
# Homo sapiens [44] = species: Homo sapiens; assay: Inhibition of transglutaminase in human keratinocytes assessed as mean transglutaminase activity level at 3.1 10^-5M in presence of 10 uM retinal relative to retinal alone; assay type: cell-based; parameters: scale not given: the % may be the effect or the level left
smiles,measurement,setting,value
CCCCCCCC(=O)OC[C@H](COP(=O)([O-])OCC[N+](C)(C)C)OC(=O)CCCCCCC,Activity,Homo sapiens [1],129%
same,Activity,Homo sapiens [2],58.1%
same,Activity,Homo sapiens [3],82%
same,Activity,Homo sapiens [4],119%
same,Activity,Homo sapiens [5],110%
same,Activity,Homo sapiens [6],88.6%
same,Activity,Homo sapiens [7],92.8%
same,Activity,Homo sapiens [8],127%
same,Activity,Homo sapiens [9],104%
same,Activity,Homo sapiens [10],95.4%
COc1cc(C=O)ccc1O,Activity,Homo sapiens [11],21.5%
same,Activity,Homo sapiens [12],80%
same,Activity,Homo sapiens [13],93.8%
same,Activity,Homo sapiens [14],82%
same,Activity,Homo sapiens [15],124%
same,Activity,Homo sapiens [16],109%
same,Activity,Homo sapiens [17],93%
same,Activity,Homo sapiens [18],101%
same,Activity,Homo sapiens [19],98%
same,IC20,Homo sapiens [20],8.47 ×10⁻³ M
CCCCCCC(O)CCCCCCCCCCC(=O)O (configuration not stated),Activity,Homo sapiens [12],90.2%
same,inhibition,[21],> 50%
same,Activity,Homo sapiens [22],81%
same,Activity,Homo sapiens [23],118%
same,Activity,Homo sapiens [14],-5.2%
same,Activity,Homo sapiens [24],71%
same,Activity,Homo sapiens [16],97.6%
same,Activity,Homo sapiens [17],82%
same,Activity,Homo sapiens [19],32.4%
same,IC20,Homo sapiens [20],1.45 ×10⁻⁵ M
same,Activity,Homo sapiens [25],98%
O=C(Nc1ccc(Cl)cc1)Nc1ccc(Cl)c(Cl)c1,Activity,Homo sapiens [26],-11.2%
same,Activity,Homo sapiens [27],54.4%
same,Activity,Homo sapiens [28],77.6%
same,Activity,Homo sapiens [29],-0.3%
same,Activity,Homo sapiens [30],18.9%
same,IC20,Homo sapiens [20],6.18 ×10⁻⁷ M
same,Activity,Homo sapiens [31],100%
same,Activity,Homo sapiens [32],15.9%
same,Activity,Homo sapiens [33],3.8%
same,Activity,Homo sapiens [34],-3.2%
same,Activity,Homo sapiens [35],36.3%
CCCCCCCCCCCCCCCCC(O)C(=O)O (configuration not stated),Activity,Homo sapiens [36],142%
same,Activity,Homo sapiens [37],51%
same,Activity,Homo sapiens [38],64%
same,Activity,Homo sapiens [39],46.6%
same,Activity,Homo sapiens [18],69.3%
same,Activity,Homo sapiens [40],105%
same,Activity,Homo sapiens [41],80%
same,Activity,Homo sapiens [42],58%
same,Activity,Homo sapiens [43],63%
same,Activity,Homo sapiens [44],96%

# Reference: ChEMBL document CHEMBL4420071, “Method for treating skin with retinoids and retinoid boosters” (2013)
